From US20170008888A1 (KYORIN PHARMACEUTICAL CO., LTD., priority 2014, published 2017)

Experiments:
TAO2 = target: T1, TAO2 (Homo sapiens, UniProt Q9UL54); assay: Probe-based (AX9989) kinase profiling in Jurkat lysate: TAO2; type: binding; conditions: read-out: Kinase inhibition % at indicated screening concentration: TAO2; for inhibition at 1 µM: screening concentration 1.0 μM; for inhibition at 0.1 µM: screening concentration 0.1 μM
T1 construct: screened for activity against several kinases in Jurkat cells; endogenous in cells; host or cells: Jurkat cell lysate
T1 sequence (Q9UL54 1-1235): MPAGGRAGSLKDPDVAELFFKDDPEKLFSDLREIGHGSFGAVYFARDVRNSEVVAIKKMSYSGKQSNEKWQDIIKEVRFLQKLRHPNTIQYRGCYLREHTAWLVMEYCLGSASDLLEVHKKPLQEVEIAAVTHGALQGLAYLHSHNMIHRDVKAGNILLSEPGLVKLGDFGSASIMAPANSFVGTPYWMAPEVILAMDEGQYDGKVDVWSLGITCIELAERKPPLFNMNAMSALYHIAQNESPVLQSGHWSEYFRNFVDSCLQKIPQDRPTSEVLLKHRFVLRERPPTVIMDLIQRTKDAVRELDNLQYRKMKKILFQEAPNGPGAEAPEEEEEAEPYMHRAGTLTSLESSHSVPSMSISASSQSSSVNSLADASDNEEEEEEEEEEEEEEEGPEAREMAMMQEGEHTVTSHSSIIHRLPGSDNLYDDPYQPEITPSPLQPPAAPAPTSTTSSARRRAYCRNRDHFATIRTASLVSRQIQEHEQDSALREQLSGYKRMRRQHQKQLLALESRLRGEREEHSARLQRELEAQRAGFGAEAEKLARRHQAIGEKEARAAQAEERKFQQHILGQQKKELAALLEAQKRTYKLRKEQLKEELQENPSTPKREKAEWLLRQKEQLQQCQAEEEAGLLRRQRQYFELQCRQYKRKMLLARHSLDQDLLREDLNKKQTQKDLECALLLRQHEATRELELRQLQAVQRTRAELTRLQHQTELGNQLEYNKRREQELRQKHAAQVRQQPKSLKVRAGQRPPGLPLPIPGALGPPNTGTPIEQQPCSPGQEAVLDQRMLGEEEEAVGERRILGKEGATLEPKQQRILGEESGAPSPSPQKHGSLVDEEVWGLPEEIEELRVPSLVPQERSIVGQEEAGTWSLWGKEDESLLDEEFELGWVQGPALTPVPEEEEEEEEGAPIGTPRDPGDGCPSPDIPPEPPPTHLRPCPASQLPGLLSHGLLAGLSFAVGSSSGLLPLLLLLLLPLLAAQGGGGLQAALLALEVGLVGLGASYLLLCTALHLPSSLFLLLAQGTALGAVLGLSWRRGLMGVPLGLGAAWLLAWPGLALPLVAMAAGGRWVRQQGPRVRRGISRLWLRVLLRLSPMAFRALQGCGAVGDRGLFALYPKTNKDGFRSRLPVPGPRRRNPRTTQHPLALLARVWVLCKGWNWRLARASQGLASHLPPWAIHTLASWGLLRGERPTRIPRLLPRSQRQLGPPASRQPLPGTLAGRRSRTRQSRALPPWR
Outline: (§1)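 Jurkat lysate, HEPES pH 7.5 buffer + 20 mM MnCl2; cpd 15 min RT; AX9989 ATP probe 5 μM final, RT. Trypsin digest, streptavidin capture, LC/MS; % inhibition vs vehicle from labeled-peptide signal.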

JAK1 = target: T2, JAK1 (Homo sapiens, UniProt P23458); assay: Probe-based (AX9989) kinase profiling in Jurkat lysate: JAK1; type: binding; conditions: read-out: Kinase inhibition % at indicated screening concentration: JAK1; for inhibition at 1 µM: screening concentration 1.0 μM; for inhibition at 0.1 µM: screening concentration 0.1 μM
T2 construct: screened for activity against several kinases in Jurkat cells; endogenous in cells; host or cells: Jurkat cell lysate
T2 sequence (P23458 whole entry): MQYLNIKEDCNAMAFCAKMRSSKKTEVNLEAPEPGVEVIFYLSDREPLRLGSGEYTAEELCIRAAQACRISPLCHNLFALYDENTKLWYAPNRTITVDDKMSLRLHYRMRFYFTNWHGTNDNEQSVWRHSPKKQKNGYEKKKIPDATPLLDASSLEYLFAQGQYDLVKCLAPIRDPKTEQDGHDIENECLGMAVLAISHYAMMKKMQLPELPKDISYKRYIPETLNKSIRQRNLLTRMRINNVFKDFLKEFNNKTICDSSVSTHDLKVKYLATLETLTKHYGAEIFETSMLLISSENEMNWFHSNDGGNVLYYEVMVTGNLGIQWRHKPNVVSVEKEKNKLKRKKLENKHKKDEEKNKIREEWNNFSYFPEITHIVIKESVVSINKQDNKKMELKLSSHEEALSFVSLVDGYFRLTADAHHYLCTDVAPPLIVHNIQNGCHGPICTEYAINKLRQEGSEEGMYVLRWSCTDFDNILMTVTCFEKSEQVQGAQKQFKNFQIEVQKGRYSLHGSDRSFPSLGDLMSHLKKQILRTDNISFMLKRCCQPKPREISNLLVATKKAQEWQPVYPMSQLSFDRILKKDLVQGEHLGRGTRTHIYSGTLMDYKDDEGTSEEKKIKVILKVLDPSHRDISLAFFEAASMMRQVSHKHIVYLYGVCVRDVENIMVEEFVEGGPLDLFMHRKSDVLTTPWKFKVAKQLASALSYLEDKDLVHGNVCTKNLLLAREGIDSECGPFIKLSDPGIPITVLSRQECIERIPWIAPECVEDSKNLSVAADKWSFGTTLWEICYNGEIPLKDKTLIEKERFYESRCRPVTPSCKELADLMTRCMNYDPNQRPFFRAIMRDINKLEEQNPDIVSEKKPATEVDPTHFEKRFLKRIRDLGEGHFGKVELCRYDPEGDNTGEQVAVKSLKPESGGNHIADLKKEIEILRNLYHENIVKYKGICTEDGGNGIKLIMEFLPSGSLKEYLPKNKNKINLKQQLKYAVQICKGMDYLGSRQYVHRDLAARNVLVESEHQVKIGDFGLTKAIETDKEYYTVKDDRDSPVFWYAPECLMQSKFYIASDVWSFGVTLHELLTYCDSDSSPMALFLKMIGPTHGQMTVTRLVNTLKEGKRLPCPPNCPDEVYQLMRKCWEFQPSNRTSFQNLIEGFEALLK
Outline: as §1

human PBMCs = assay: Human PBMC TNF-α response to endotoxin (ELISA); type: cell-based; conditions: 0.1 μg/ml LPS 16 h, read-out: EC50 for the inhibition of the human PBMC TNF-α response to endotoxin, ave. ± S.D.
Procedure: Human PBMCs (Astarte Biologics, Redmond, Wash.) were seeded at 2e6 cells/ml in RPMI 1640 containing 10% (v/v) charcoal-dextran treated, heat inactivated FBS (Omega Scientific, Tarzana, Calif.), 0.05 mM 2-Mercaptoethanol (Sigma-Aldrich, St. Louis, Mo.), and 1×Pen/Strep Amphotericin B (Lonza, Allendale, N.J.). Cells were pre-treated with test compounds (10 μM down by ⅕ in a 4-point serial dilution series) for 1 h at 37° C. in a humidified atmosphere at 5% CO2. Cells were then stimulated with 0.1 μg/ml lipopolysaccharide (LPS) from E. coli 0111:B4 (EMD Millipore, Billerica, Mass.) for 16 h at 37° C. in a humidified atmosphere at 5% CO2. Supernatant was collected and a 25-fold dilution was analyzed for TNF-α concentration using an ELISA kit from Life Technologies (Grand Island, N.Y.) according to the manufacturer's instructions. Absorbance at 450 nm was read using the Synergy 2 multi-detection microplate reader (BioTek Instruments, Winooski, Vt.).

ERK5 = target: T3, ERK5 (Homo sapiens, UniProt Q13164); assay: Probe-based (AX9989 acyl phosphate ATP probe) kinase profiling in Jurkat lysate: ERK5; type: binding; conditions: for IC50: calculated from percent inhibition of AX9989 labeling and the screening concentration, Jurkat lysate; for inhibition at 1 µM: screening concentration 1.0 μM; for inhibition at 1 µM / inhibition at 0.1 µM: read-out: Kinase inhibition % at indicated screening concentration: ERK5; for inhibition at 0.1 µM: screening concentration 0.1 μM
T3 construct: screened for activity against several kinases in Jurkat cells; endogenous in cells; host or cells: Jurkat cell lysate
T3 sequence (Q13164 whole entry): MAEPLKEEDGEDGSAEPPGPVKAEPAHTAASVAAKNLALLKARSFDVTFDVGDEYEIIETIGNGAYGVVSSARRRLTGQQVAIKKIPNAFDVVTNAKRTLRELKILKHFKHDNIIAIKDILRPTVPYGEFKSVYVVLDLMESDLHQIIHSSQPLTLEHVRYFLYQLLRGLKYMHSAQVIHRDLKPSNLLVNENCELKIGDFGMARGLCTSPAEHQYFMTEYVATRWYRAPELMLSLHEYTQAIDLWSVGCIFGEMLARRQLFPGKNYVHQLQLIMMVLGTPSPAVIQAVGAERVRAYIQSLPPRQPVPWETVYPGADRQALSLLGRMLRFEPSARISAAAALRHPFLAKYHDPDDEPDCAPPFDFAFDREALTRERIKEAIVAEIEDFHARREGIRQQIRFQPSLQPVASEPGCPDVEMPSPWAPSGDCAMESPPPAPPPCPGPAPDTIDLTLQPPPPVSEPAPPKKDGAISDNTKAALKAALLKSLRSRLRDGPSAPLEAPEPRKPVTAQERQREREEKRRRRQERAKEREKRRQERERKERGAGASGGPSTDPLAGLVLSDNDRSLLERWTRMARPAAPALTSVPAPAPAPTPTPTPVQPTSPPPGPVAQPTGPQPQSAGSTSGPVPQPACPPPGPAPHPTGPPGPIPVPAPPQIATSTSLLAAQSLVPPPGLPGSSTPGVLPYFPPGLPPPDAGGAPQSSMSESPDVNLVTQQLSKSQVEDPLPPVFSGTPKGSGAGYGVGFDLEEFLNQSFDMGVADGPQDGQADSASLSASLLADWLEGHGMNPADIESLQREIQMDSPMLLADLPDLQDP
Outline: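 Gel-filtered Jurkat lysate (5 mg/ml, 20 mM MnCl2) preincubated 15 min at room temperature with compound, then labelled with 5 μM AX9989 acyl phosphate ATP probe. Probe-labelled ERK5 active-site peptides quantified by LC/MS after trypsin digestion and streptavidin capture; IC50 calculated from percent inhibition at the screening concentration.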

AMPKa1 or AMPKa2 = assay: Probe-based (AX9989) kinase profiling in Jurkat lysate: AMPKa1 or AMPKa2; type: binding
Outline: as §1

ACK = target: T4, ACK (Homo sapiens, UniProt Q07912); assay: Probe-based (AX9989) kinase profiling in Jurkat lysate: ACK; type: binding; conditions: read-out: Kinase inhibition % at indicated screening concentration: ACK; for inhibition at 1 µM: screening concentration 1.0 μM; for inhibition at 0.1 µM: screening concentration 0.1 μM
T4 construct: screened for activity against several kinases in Jurkat cells; endogenous in cells; host or cells: Jurkat cell lysate
T4 sequence (Q07912 whole entry): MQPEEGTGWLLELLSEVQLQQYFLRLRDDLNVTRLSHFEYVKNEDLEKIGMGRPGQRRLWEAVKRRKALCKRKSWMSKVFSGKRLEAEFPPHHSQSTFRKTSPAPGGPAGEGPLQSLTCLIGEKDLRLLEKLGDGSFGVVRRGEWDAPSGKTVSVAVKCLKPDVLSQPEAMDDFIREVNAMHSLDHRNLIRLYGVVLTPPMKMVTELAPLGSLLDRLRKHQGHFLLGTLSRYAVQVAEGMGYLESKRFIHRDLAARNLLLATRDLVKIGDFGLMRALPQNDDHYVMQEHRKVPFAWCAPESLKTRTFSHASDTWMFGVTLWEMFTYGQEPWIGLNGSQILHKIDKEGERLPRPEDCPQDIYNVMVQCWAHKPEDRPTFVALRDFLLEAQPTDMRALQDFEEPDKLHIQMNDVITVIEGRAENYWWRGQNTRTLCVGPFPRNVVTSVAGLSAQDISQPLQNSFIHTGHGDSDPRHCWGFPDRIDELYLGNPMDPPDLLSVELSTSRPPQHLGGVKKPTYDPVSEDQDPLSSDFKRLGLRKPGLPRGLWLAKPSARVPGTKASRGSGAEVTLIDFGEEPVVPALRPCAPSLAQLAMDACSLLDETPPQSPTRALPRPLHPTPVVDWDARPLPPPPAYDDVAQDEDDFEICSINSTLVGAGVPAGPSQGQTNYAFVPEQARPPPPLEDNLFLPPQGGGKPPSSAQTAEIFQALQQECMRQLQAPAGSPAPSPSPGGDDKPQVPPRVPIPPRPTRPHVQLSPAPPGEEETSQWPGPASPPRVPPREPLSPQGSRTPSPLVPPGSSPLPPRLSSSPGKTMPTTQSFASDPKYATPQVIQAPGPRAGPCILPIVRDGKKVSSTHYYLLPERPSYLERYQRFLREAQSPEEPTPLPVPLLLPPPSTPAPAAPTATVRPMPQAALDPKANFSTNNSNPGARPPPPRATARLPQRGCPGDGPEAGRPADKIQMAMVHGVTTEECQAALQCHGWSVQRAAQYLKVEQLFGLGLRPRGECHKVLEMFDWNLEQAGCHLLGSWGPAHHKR
Outline: as §1

AurA = target: T5, AurA (Homo sapiens, UniProt O14965); assay: Probe-based (AX9989) kinase profiling in Jurkat lysate: AurA; type: binding; conditions: read-out: Kinase inhibition % at indicated screening concentration: AurA; for inhibition at 1 µM: screening concentration 1.0 μM; for inhibition at 0.1 µM: screening concentration 0.1 μM
T5 construct: screened for activity against several kinases in Jurkat cells; endogenous in cells; host or cells: Jurkat cell lysate
T5 sequence (O14965 1-403): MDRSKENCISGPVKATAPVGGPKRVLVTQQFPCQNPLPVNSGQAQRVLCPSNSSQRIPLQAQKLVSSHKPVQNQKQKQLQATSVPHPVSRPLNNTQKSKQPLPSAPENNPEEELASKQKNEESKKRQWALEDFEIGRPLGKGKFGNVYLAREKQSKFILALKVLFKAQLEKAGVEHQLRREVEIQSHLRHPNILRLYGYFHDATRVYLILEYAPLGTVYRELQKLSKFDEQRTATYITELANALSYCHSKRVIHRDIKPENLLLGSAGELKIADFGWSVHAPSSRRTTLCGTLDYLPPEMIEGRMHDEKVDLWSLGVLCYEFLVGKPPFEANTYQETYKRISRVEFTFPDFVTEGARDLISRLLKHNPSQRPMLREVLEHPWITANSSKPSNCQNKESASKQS
Outline: as §1

AurB or AurC = assay: Probe-based (AX9989) kinase profiling in Jurkat lysate: AurB or AurC; type: binding
Outline: as §1

ABL or ARG = assay: Probe-based (AX9989) kinase profiling in Jurkat lysate: ABL or ARG; type: binding
Outline: as §1

Compound | inhibition at 1 µM (TAO2) [%] | inhibition at 1 µM (JAK1) [%] | IC50 (ERK5) [nM] | inhibition at 1 µM (ERK5) [%] | Kinase inhibition % at indicated screening concentration: AMPKa1 or AMPKa2 (AMPKa1 or AMPKa2; screening concentration 1.0 μM) | inhibition at 1 µM (ACK) [%] | inhibition at 1 µM (AurA) [%] | Kinase inhibition % at indicated screening concentration: AurB or AurC (AurB or AurC; screening concentration 1.0 μM) | Kinase inhibition % at indicated screening concentration: ABL or ARG (ABL or ARG; screening concentration 1.0 μM) | inhibition at 0.1 µM (TAO2) [%] | inhibition at 0.1 µM (JAK1) [%] | inhibition at 0.1 µM (ERK5) [%] | Kinase inhibition % at indicated screening concentration: AMPKa1 or AMPKa2 (AMPKa1 or AMPKa2; screening concentration 0.1 μM) | inhibition at 0.1 µM (ACK) [%] | inhibition at 0.1 µM (AurA) [%] | Kinase inhibition % at indicated screening concentration: AurB or AurC (AurB or AurC; screening concentration 0.1 μM) | Kinase inhibition % at indicated screening concentration: ABL or ARG (ABL or ARG; screening concentration 0.1 μM) | EC50 (human PBMCs) [µM]
Cc1cc(C(=O)N2CC[C@@H](N(C)C)C2)ccc1Nc1cc2c(cn1)N(C)C(=O)c1ccccc1N2C [Compound 32] | – | – | ≤ 50 | – | – | – | – | – | – | ≤ 35 | ≤ 35 | 75 to 90 | E (E is ≦35%) | ≤ 35 | ≤ 35 | E (E is ≦35%) | E (E is ≦35%) | 6.36
Cc1c(Nc2cc3c(cn2)N(C)C(=O)c2ccccc2N3C)cnn1C [Compound 59] | ≤ 35 | ≤ 35 | 101 to 500 | 75 to 90 | E (E is ≦35%) | ≤ 35 | ≤ 35 | E (E is ≦35%) | E (E is ≦35%) | – | – | – | – | – | – | – | – | 5.84
Cc1cc(CO)ccc1Nc1cc2c(cn1)N(C)C(=O)c1ccccc1N2C [Compound 85, 3-(4-(hydroxymethyl)-2-methylphenylamino)-5,11-dimethyl-5H-benzo[e]pyrido[3,4-b][1,4]diazepin-10(11H)-one] | ≤ 35 | ≤ 35 | 101 to 500 | 75 to 90 | E (E is ≦35%) | ≤ 35 | ≤ 35 | E (E is ≦35%) | E (E is ≦35%) | – | – | – | – | – | – | – | – | 1.35
Cc1cc(C#N)ccc1Nc1cc2c(cn1)N(C)C(=O)c1ccccc1N2C [Compound 89] | ≤ 35 | ≤ 35 | 101 to 500 | 50 to 75 | E (E is ≦35%) | ≤ 35 | ≤ 35 | E (E is ≦35%) | E (E is ≦35%) | – | – | – | – | – | – | – | – | 1.75

Second part, led by results:

inhibition at 1 µM (TAO2) [%] | inhibition at 1 µM (JAK1) [%] | IC50 (ERK5) [nM] | inhibition at 1 µM (ERK5) [%] | Kinase inhibition % at indicated screening concentration: AMPKa1 or AMPKa2 (AMPKa1 or AMPKa2; screening concentration 1.0 μM) | inhibition at 1 µM (ACK) [%] | inhibition at 1 µM (AurA) [%] | Kinase inhibition % at indicated screening concentration: AurB or AurC (AurB or AurC; screening concentration 1.0 μM) | Kinase inhibition % at indicated screening concentration: ABL or ARG (ABL or ARG; screening concentration 1.0 μM) | inhibition at 0.1 µM (TAO2) [%] | inhibition at 0.1 µM (JAK1) [%] | inhibition at 0.1 µM (ERK5) [%] | Kinase inhibition % at indicated screening concentration: AMPKa1 or AMPKa2 (AMPKa1 or AMPKa2; screening concentration 0.1 μM) | inhibition at 0.1 µM (ACK) [%] | inhibition at 0.1 µM (AurA) [%] | Kinase inhibition % at indicated screening concentration: AurB or AurC (AurB or AurC; screening concentration 0.1 μM) | Kinase inhibition % at indicated screening concentration: ABL or ARG (ABL or ARG; screening concentration 0.1 μM) | Compound | EC50 (human PBMCs) [µM]
≤ 35 | ≤ 35 | 101 to 500 | 75 to 90 | E (E is ≦35%) | ≤ 35 | ≤ 35 | E (E is ≦35%) | E (E is ≦35%) | – | – | – | – | – | – | – | – | CCN(CC)CCNC(=O)c1ccc(OC)c(Nc2cc3c(cn2)N(C)C(=O)c2ccccc2N3C)c1 [Compound 16] | 1.87
– | – | 101 to 500 | – | – | – | – | – | – | ≤ 35 | ≤ 35 | 35 to 50 | E (E is ≦35%) | ≤ 35 | ≤ 35 | E (E is ≦35%) | E (E is ≦35%) | CCOc1cc(C(=O)N2CCC(c3c[nH]cn3)CC2)ccc1Nc1cc2c(cn1)N(C)C(=O)c1ccccc1N2C [Compound 35] | 6
≤ 35 | ≤ 35 | 101 to 500 | 75 to 90 | E (E is ≦35%) | ≤ 35 | ≤ 35 | E (E is ≦35%) | E (E is ≦35%) | – | – | – | – | – | – | – | – | COc1ccc(Nc2cc3c(cn2)N(C)C(=O)c2ccccc2N3C)c(C)c1 [Compound 41] | 7.61
– | – | 101 to 500 | – | – | – | – | – | – | ≤ 35 | ≤ 35 | 35 to 50 | E (E is ≦35%) | ≤ 35 | ≤ 35 | E (E is ≦35%) | E (E is ≦35%) | CCOc1cc(C(=O)N2CCN(C(=O)OC(C)(C)C)C[C@@H]2C)ccc1Nc1cc2c(cn1)N(C)C(=O)c1ccccc1N2C [Compound 50] | 2.58
≤ 35 | ≤ 35 | > 500 | ≤ 35 | E (E is ≦35%) | ≤ 35 | ≤ 35 | E (E is ≦35%) | E (E is ≦35%) | – | – | – | – | – | – | – | – | CCOc1cc(C(=O)N2CCC(N3CCN(C)CC3)CC2)ccc1Nc1cc2c(cn1)N(C)C(=O)C1CCCCC1N2C (stereo not drawn) [Compound 68] | > 10
